# Source: patent US9351965B2, “Indazole derivatives useful as ERK inhibitors” (Merck Sharp & Dohme Corp., priority 2010, dated 2016)
# Target: fully phosphorylated, active Mouse ERK2 protein (Mus musculus (Mouse), UniProt P63085)
# Assay: Active ERK2 (aERK) IMAP assay
# Format: biochemical
# Conditions: IMAP fluorescence polarization; 30 μM ATP; 30 minute pre-incubation
# Sequence of fully phosphorylated, active Mouse ERK2 protein (P63085 whole entry): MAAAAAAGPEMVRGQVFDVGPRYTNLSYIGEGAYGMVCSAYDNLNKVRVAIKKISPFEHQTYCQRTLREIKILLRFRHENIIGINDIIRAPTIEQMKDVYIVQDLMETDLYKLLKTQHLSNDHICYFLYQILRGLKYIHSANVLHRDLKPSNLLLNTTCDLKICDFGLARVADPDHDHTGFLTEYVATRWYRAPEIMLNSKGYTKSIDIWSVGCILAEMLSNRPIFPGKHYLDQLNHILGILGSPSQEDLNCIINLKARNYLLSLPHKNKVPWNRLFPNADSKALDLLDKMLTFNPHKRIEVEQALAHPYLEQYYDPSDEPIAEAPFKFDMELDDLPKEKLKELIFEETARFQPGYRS
row,SMILES,IC50 [nM]
1,Cc1cc(-c2n[nH]c3ccc(C(=O)N[C@H]4CCC[C@](O)(Cn5c(C)nc6ccccc65)C4)cc23)ccn1 [compound 70],332
2,"Cc1cc(-c2n[nH]c3ccc(C(=O)NC4CCCC(Oc5ccccc5Cl)C4)cc23)ccn1 (single isomer, unassigned) [compound 34, N-[3-(2-chlorophenoxy)cyclohexyl]-3-(2-methyl-4-pyridinyl)-1H-indazole-5-carboxamide]",198
3,"Cc1cc(-c2n[nH]c3ccc(C(=O)N[C@@H]4CCC[C@@](O)(Cn5ncc6cnccc65)C4)cc23)ccn1 (relative stereo) [compound 91, N-[cis-3-hydroxy-3-(1H-pyrazolo[4,3-c]pyridin-1-ylmethyl)cyclohexyl]-3-(2-methyl-4-pyridinyl)-1H-indazole-5-carboxamide]",563
4,"Cc1cc(-c2n[nH]c3ccc(C(=O)NC4CCCC(O)(Cc5c(F)cccc5F)C4)cc23)ccn1 (single isomer, unassigned) [compound 6, N-[3-[(2,6-difluorophenyl)methyl]-3-hydroxycyclohexyl]-3-(2-methyl-4-pyridinyl)-1H-indazole-5-carboxamide]",1000
5,"Cc1cc(-c2n[nH]c3ccc(C(=O)NC4CCC(CO)(Cc5ccccc5F)C4)cc23)ccn1 (stereo not drawn) [compound 138, N-[3-[(2-fluorophenyl)methyl]-3-(hydroxymethyl)cyclopentyl]-3-(2-methyl-4-pyridinyl)-1H-indazole-5-carboxamide]",19.2
6,"Cc1cc(-c2n[nH]c3ccc(C(=O)NC4CCCC(Cn5ncc6cccnc65)C4)cc23)ccn1 (stereo not drawn) [compound 114, 3-(2-methyl-4-pyridinyl)-N-[3-(1H-pyrazolo[3,4-b]pyridin-1-ylmethyl)cyclohexyl]-1H-indazole-5-carboxamide]",15.4
7,"Cc1cc(-c2n[nH]c3ccc(C(=O)NC4CCCC(O)(Cc5ccccc5F)C4)cc23)ccn1 (single isomer, unassigned) [compound 4, N-[3-[(2-fluorophenyl)methyl]-3-hydroxycyclo-hexyl]-3-(2-methyl-4-pyridinyl)-1H-indazole-5-carboxamide]",128
8,"Cn1cc2cc(-c3n[nH]c4ccc(C(=O)N[C@@H]5CCC[C@@](O)(Cn6cnc7ccccc76)C5)cc34)ccc2n1 (relative stereo) [compound 62, N-[cis-3-(1H-benzimidazol-1-ylmethyl)-3-hydroxycyclohexyl]-3-(2-methyl-2H-indazol-5-yl)-1H-indazole-5-carboxamide]",19.9
9,"Cc1cc(-c2n[nH]c3ccc(C(=O)NC4CCCC(Oc5ccccc5F)C4)cc23)ccn1 (stereo not drawn) [compound 33, N-[3-(2-fluorophenoxy)cyclohexyl]-3-(2-methyl-4-pyridinyl)-1H-indazole-5-carboxamide]",114
